# In patent publication US8067015B2, “Methods and compositions for the treatment and prevention of Staphylococcus and other bacterial infections” (priority 1997, dated 2011):
# Tests used:
# Assay type in all cases: in vivo
# [1] = test system: S. epidermidis MSSE strain; assay: Rat subcutaneous Dacron graft infection model, MSSE strain; details: rats; for Bacterial concentration, MSSE: 2×10^7 bacteria, explanted day 7, mean ± SD
# Description: (§1) Rats (Wistar adult males (300-350 g), n=15/experimental group) were anaesthetized, hair on their back shaved and the skin cleansed with 10% povidone-iodine solution. A subcutaneous pocket was made on the side of the median line by a 1.5 cm incision. Aseptically, 1 cm^2 sterile collagen-sealed Dacron graft (Albograft™, Sorin Biomedica Cardio, S.p.A., Saluggi VC, Italy) was implanted into the pocket. […] Pockets were closed by skin clips and 1 ml sterile saline solution with or without 2×10^7 bacteria was inoculated onto the graft surface using a tuberculin syringe to create a subcutaneous fluid-filled pocket. Some of the animals that had grafts soaked only with RIP or saline were injected intraperitoneally with antibiotics (cefazolin 30 mg/kg, imipenem 30 mg/kg, teicoplanin 10 mg/kg, levofloxacin 10 mg/kg). Grafts were explanted 7 days following implantation.
# (§2) The explanted grafts were placed in sterile tubes, washed in sterile saline solution, placed in tubes containing 10 ml of phosphate-buffered saline solution and sonicated for 5 min to remove the adherent bacteria from the grafts. Quantitation of viable bacteria was performed by culturing serial 10-fold dilutions (0.1 ml) of the bacterial suspension on blood agar plates. All plates were incubated at 37° C. for 48 hr and evaluated for the presence of the strain. Bacteria were quantitated by counting the number of colony forming unites (CFU) per plate. To determine if bacteria were efficiently removed from the graft, washed and sonicated grafts were observed under a Nikon Eclipse E 600 optical microscope (Nikon Y-THS, Japan).
# (§3) Quantitative culture results of the in vivo experiments were presented as mean+SD of the mean. Comparisons of the results were performed by the analysis of variance (ANOVA) on the log-transformed data. Statistical analysis was performed for in vitro adhesion assays using Student's t-Test by Microsoft Excel (Microsoft, Wash.). Significance was accepted when the P value was <0.05.
# (§4) To test if RIP can prevent graft-associated infections, Dacron grafts were coated with or without RIP, and with or without various types of antibiotics (for local prophylaxis experiments). Coated grafts were implanted in rats, bacteria injected into the implants, implants removed after a week, and bacterial load determined. Alternatively, Dacron grafts were first coated with RIP, bacteria injected, and antibiotics were administered by the intraperitoneal route (for parenteral prophylaxis experiments). As a negative control, grafts were implanted without local or parenteral RIP/antibiotics prophylaxis and no bacteria were injected. As a positive control, grafts were implanted, bacteria were injected, but no RIP/antibiotics prophylaxis was given.
# (§5) Animals (15/group) received a Dacron-graft implanted in a subcutaneous pocket. Graft was subsequently infected with either S. epidermidis (tested on MSSE, MRSE and GISE) or with S. aureus (tested on MSSA, MRSA and GISA). […]
# [2] = test system: S. epidermidis MRSE strain; assay: Rat subcutaneous Dacron graft infection model, MRSE strain; details: rats; for Bacterial concentration, MRSE: 2×10^7 bacteria, explanted day 7, mean ± SD
# Description: as §1, §2, §3, §4
# Animals (15/group) received a Dacron-graft implanted in a subcutaneous pocket. Graft was subsequently infected with either S. epidermidis (tested on MSSE, MRSE and GISE) or with S. aureus (tested on MSSA, MRSA and GISA). The Dacron-graft prior to implantation was soaked in saline with or without 20 mg/l of RIP and some animals received […] of RIP i.p. as a prophylaxis treatment.
# [3] = test system: S. epidermidis GISE strain; assay: Rat subcutaneous Dacron graft infection model, GISE strain; details: rats; for Bacterial concentration, GISE: 2×10^7 bacteria, explanted day 7, mean ± SD
# Description: as §1, §2, §3, §4, §5
# [4] = A. Local prophylaxis: graft soaked 20 min in RIP 10 mg/l and/or antibiotic (mupirocin 100, quinupristin-dalfopristin 50, levofloxacin 30, rifampin 5 mg/l)
# [5] = B. Parenteral prophylaxis: antibiotic intraperitoneally (cefazolin 30, imipenem 30, teicoplanin 10, levofloxacin 10 mg/kg), RIP as 10 mg/l graft soak
# [6] = peptide-soaked/coated Dacron graft (RIP 10 mg/l), no antibiotic, day 7
compound,measurement,setting,value
"C/C(=C\C(=O)OCCCCCCCCC(=O)O)C[C@@H]1OC[C@H](C[C@@H]2O[C@H]2[C@@H](C)[C@H](C)O)[C@@H](O)[C@H]1O [Mupirocin, mupirocin]","Bacterial concentration, MSSE",[1]; [4],0.064 ± 0.015 ×10^4 CFU/ml
same,"Bacterial concentration, MRSE",[2]; [4],0.035 ± 0.014 ×10^4 CFU/ml
same,"Bacterial concentration, GISE",[3]; [4],0.07 ± 0.018 ×10^4 CFU/ml
"C[C@@H](O)[C@H]1C(=O)N2C(C(=O)O)=C(SCCN=CN)C[C@H]12 [Imipenem, imipenem]","Bacterial concentration, MSSE",[1]; [5],0.73 ± 0.2 ×10^4 CFU/ml
same,"Bacterial concentration, MRSE",[2]; [5],4 ± 1.8 ×10^4 CFU/ml
same,"Bacterial concentration, GISE",[3]; [5],89 ± 36 ×10^4 CFU/ml
quinupristin-dalfopristin,"Bacterial concentration, MSSE",[1]; [4],0.0026 ± 0.0003 ×10^4 CFU/ml
same,"Bacterial concentration, MRSE",[2]; [4],0.0048 ± 0.001 ×10^4 CFU/ml
same,"Bacterial concentration, GISE",[3]; [4],0.0069 ± 0.0013 ×10^4 CFU/ml
"CO[C@H]1/C=C/O[C@@]2(C)Oc3c(C)c(O)c4c(O)c(c(/C=N/N5CCN(C)CC5)c(O)c4c3C2=O)NC(=O)/C(C)=C\C=C\[C@H](C)[C@H](O)[C@@H](C)[C@@H](O)[C@@H](C)[C@H](OC(C)=O)[C@@H]1C [Rifampicin, rifampin]","Bacterial concentration, MSSE",[1]; [4],0.73 ± 0.2 ×10^4 CFU/ml
same,"Bacterial concentration, MRSE",[2]; [4],0.8 ± 0.37 ×10^4 CFU/ml
same,"Bacterial concentration, GISE",[3]; [4],84 ± 27 ×10^4 CFU/ml
teicoplanin,"Bacterial concentration, MSSE",[1]; [5],0.0084 ± 0.0004 ×10^4 CFU/ml
same,"Bacterial concentration, MRSE",[2]; [5],0.072 ± 0.008 ×10^4 CFU/ml
same,"Bacterial concentration, GISE",[3]; [5],57 ± 24 ×10^4 CFU/ml
"C[C@H]1COc2c(N3CCN(C)CC3)c(F)cc3c(=O)c(C(=O)O)cn1c23 [Levofloxacin, levofloxacin]","Bacterial concentration, MSSE",[1]; [4],4.2 ± 2.1 ×10^4 CFU/ml
same,"Bacterial concentration, MSSE",[1]; [5],3.5 ± 1.1 ×10^4 CFU/ml
same,"Bacterial concentration, MRSE",[2]; [4],6.8 ± 2.5 ×10^4 CFU/ml
same,"Bacterial concentration, MRSE",[2]; [5],3.9 ± 1.4 ×10^4 CFU/ml
same,"Bacterial concentration, GISE",[3]; [4],280 ± 40 ×10^4 CFU/ml
same,"Bacterial concentration, GISE",[3]; [5],480 ± 170 ×10^4 CFU/ml
"Cc1nnc(SCC2=C(C(=O)O)N3C(=O)[C@@H](NC(=O)Cn4cnnn4)[C@H]3SC2)s1 [Cefazolin, cefazolin]","Bacterial concentration, MSSE",[1]; [5],0.64 ± 0.19 ×10^4 CFU/ml
same,"Bacterial concentration, MRSE",[2]; [5],370 ± 120 ×10^4 CFU/ml
same,"Bacterial concentration, GISE",[3]; [5],590 ± 200 ×10^4 CFU/ml
YKPETNF [inactive RIP peptide analogue],"Quantitative culture results of explanted graft, MSSE strain",[1]; [6],5.4×10^6±8×10^5 CFU/ml
same,"Quantitative culture results of explanted graft, MRSE strain",[2]; [6],7.08×10^6±2.1×10^6 CFU/ml
same,"Quantitative culture results of explanted graft, GISE strain",[3]; [6],6.52×10^6±3×10^6 CFU/ml
